{
  "source": "patent US11267802B2",
  "about": "(BEBETTER MED INC., priority 2015, dated 2022)",
  "key": {"[1]": {"system": "H1975 xenograft tumor", "assay": "Potency assay of tumor model, 16 consecutive days", "format": "in vivo, Balb/C nude mice", "conditions": "oral", "description": "(§1) Balb/C nude mice were purchased from Beijing Vital River Laboratory Animal Technology Co., Ltd., and housed in SPF animal room. The human non-small-cell lung cancer cell line H1975 in a culture dish was collected by trypsin-EDTA (0.25% trypsin, 1 mM EDTA), and then washed with a serum-free PBS solution. Lastly, the cells were implanted after diluted in a serum-free medium. Only the single cell suspension with a survival rate over 90% (Trypan blue rejection) can be used for injection. 5 million cells suspended in a 0.1 ml serum-free culture were injected into the front right flanking subcutaneous region of each mouse by using a 1 ml syringe and a 25G syringe needle, and the blood vessel was carefully avoided. The tumor size was measured in about one week after implantation. A caliper rule was used to measure the tumor size. The tumor volume was calculated by the following formula: tumor volume=(length×width^2)/2.\nThis experiment studied the inhibition of tumor growth in H1975 xenograft tumor model by the compounds 20, 50, 91, and 118. When the mean volume of H1975 tumor reached about 260 mm^3, the animals were divided into 5 oral administration groups, that is, excipient control group and groups of oral administration of compound 20, compound 50, compound 91, and compound 118, respectively (n=8/group). These compounds were dissolved in 30% sulfobutylated beta-cyclodextrin (SBE-β-CD) and 1N HCl (pH 3-4). […]"}, "[2]": {"assay": "Pharmacokinetics in beagles after oral administration", "format": "in vivo", "conditions": "male, beagle, dog, 5 mg/kg, plasma", "description": "(§2) Male SD rats weighing 250-300 g, or male beagles weighing 9-10 kg, were fasted overnight before the experiment. The object compounds were dissolved in 30% sulfobutylated beta-cyclodextrin (SBE-β-CD), and orally administrated to the rats at a dose of 20 mg/kg or to the beagles at a dose of 5 mg/kg. Blood samples were taken at 15 minutes, 30 minutes, 1 hour, 2 hours, 3 hours, 4 hours, 6 hours, 8 hours and 24 hours after administration. 0.3 ml of blood was collected at every time point, placed in a centrifuge tube containing K2-EDTA (ethylenediamine tetraacetic acid dipotassium) and centrifuged (2,000 g, 10 minutes, 4° C.) to collect plasma, which was then stored in an ultra cold storage freezer at −80° C. 50 μL of plasma sample was mixed with 5 μL of internal standard (IS), and then extracted with ethyl acetate. After vacuum drying, the residue was re-dissolved in acetonitrile. The sample was filtered and injected into LC-MS/MS for analysis."}, "[3]": {"molecular_target": "T1, EGFR T790M/L858R (Homo sapiens, UniProt P00533, L858R/T790M)", "T1 construct": "purchased Invitrogen PR8911A", "T1 sequence (P00533 25-1210 T790M/L858R)": "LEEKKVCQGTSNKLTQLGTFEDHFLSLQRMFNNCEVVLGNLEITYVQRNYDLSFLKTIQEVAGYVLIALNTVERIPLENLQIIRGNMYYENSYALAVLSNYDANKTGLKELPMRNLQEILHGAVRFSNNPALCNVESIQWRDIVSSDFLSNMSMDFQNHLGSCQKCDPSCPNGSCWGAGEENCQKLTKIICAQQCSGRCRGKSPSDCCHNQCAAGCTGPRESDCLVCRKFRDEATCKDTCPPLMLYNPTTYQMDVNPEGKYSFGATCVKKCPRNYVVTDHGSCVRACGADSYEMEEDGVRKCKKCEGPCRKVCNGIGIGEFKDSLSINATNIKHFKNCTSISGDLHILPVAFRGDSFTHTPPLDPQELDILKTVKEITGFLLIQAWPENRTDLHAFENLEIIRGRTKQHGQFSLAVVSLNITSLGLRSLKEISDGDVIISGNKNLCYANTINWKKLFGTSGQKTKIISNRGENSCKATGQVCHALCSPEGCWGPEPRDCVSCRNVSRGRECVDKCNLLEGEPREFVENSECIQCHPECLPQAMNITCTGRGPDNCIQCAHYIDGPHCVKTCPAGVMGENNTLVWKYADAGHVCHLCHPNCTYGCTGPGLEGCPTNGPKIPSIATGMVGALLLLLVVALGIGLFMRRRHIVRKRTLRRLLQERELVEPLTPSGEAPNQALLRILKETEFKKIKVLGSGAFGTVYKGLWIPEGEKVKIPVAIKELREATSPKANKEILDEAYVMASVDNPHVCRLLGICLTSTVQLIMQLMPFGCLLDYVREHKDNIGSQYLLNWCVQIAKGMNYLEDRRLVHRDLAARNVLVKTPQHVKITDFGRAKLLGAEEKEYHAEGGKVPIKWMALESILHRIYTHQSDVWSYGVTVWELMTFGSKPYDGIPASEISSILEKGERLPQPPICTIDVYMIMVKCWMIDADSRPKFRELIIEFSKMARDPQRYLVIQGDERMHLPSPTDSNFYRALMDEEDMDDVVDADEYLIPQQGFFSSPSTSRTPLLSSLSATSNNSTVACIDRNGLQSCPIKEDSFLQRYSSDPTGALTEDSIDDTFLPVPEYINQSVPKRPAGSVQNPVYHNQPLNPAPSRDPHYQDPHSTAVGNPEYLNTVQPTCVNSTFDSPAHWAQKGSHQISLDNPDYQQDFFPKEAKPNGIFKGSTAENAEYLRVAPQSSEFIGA", "assay": "Mutant EGFR T790M/L858R activity inhibition assay (Caliper mobility shift)", "format": "biochemical", "conditions": "read-out: enzyme activity inhibition (IC50) EGFR T790M/L858R", "how_it_was_run": "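Compound added in 10% DMSO at 5-fold final concentration; substrate conversion read by Caliper mobility shift. Inhibition = (max−conversion)/(max−min)×100, with max from DMSO no-compound wells and min from no-enzyme wells; IC50 from fitted concentration–response curve.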"}, "[4]": {"system": "H1975 xenograft tumor", "assay": "Potency assay of tumor model, dose-effect relationship, 22 consecutive days", "format": "in vivo, Balb/C nude mice", "conditions": "for Tumor inhibition T/C value (%) / Weight change (%): po, qd", "description": "as §1\nFurther assay was performed to assess the dose-effect relationship of the inhibition of H1975 transplantation tumor growth by the compounds 51 and 91. […] These compounds were dissolved in 30% sulfobutylated beta-cyclodextrin (SBE-β-CD) and 1N HCl (pH 3-4), respectively. […]"}, "[5]": {"assay": "Pharmacokinetics in rats after oral administration", "format": "in vivo, SD rats", "description": "as §2"}, "[6]": {"system": "H1975", "assay": "Inhibition assay on tumor cell proliferation (CellTiter-Glo), H1975", "format": "cell-based, Human", "conditions": "Homo sapiens, NCI-H1975; H1975 (L858R and T790M EGFR double mutation), 72 hours, 10% bovine serum"}, "[7]": {"conditions": "male, SD, rat, 20 mg/kg, plasma"}},
  "note": "pIC50: −log10 of the molar value.",
  "data": [
    {"smiles": "C=CC(=O)Nc1cc(Nc2nccc(-n3c(=O)n(C(C)C)c4cc(F)ccc43)n2)c(OC)cc1N(C)CCN(C)C", "note": "[Compound 91, N-(2-((2-(dimethylamino)ethyl)(methyl)amino)-5-(4-(5-fluoro-3-isopropyl-2-oxo-2,3-dihydro-1H-benzo[d]imidazol-1-yl)pyrimidin-2-ylamino)-4-methoxyphenyl)acrylamide]", "values": [
      {"measurement": "T/C value", "setting": "[1]; 30 mg/kg qd as printed, 16 days after administration", "result": "−95", "unit": "%"},
      {"measurement": "inhibition of growth of H1975 xenograft tumor (in words)", "setting": "[1]; 30 mg/kg qd, 16 days", "result": "tumor regression"},
      {"measurement": "AUC(0-inf)", "setting": "[2]", "result": 814, "unit": "ng·h/mL"},
      {"measurement": "Cmax", "setting": "[2]", "result": 109, "unit": "ng/mL"},
      {"measurement": "Tmax", "setting": "[2]", "result": 1.67, "unit": "h"},
      {"measurement": "half-life", "setting": "[2]", "result": 262, "unit": "min"},
      {"measurement": "AUC(0-t)", "setting": "[2]; read-out: AUC0-24", "result": 786, "unit": "ng·h/mL"},
      {"measurement": "pIC50", "setting": "[3]", "result": "> 9.00"},
      {"measurement": "Tumor inhibition T/C value (%)", "setting": "[4]; 10 mg/kg, 22 consecutive days", "result": "−73", "unit": "%"},
      {"measurement": "Weight change (%)", "setting": "[4]; 10 mg/kg, 22 consecutive days", "result": 1.6, "unit": "%"},
      {"measurement": "Tumor inhibition T/C value (%)", "setting": "[4]; 20 mg/kg, 22 consecutive days", "result": "−100", "unit": "%"},
      {"measurement": "Weight change (%)", "setting": "[4]; 20 mg/kg, 22 consecutive days", "result": 1.2, "unit": "%"},
      {"measurement": "Tumor inhibition T/C value (%)", "setting": "[4]; 40 mg/kg, 22 consecutive days", "result": "−100", "unit": "%"},
      {"measurement": "Weight change (%)", "setting": "[4]; 40 mg/kg, 22 consecutive days", "result": "−3.5", "unit": "%"},
      {"measurement": "tumor outcome (in words)", "setting": "[4]; high dose (40 mg/kg), 22 consecutive days", "result": "the tumor disappeared completely"},
      {"measurement": "dose dependence of inhibition of H1975 xenograft tumor growth (in words)", "setting": "[4]; oral, 10, 20 and 40 mg/kg", "result": "dose dependently inhibited"},
      {"measurement": "melting point", "result": "225 to 227", "unit": "°C"},
      {"measurement": "absorption / blood exposure after oral administration (in words)", "setting": "[5]", "result": "well absorbed, with high blood exposure"},
      {"measurement": "AUC(0-inf)", "setting": "[5]; [7]", "result": 1350, "unit": "ng·h/mL"},
      {"measurement": "Cmax", "setting": "[5]; [7]", "result": 292, "unit": "ng/mL"},
      {"measurement": "Tmax", "setting": "[5]; [7]", "result": 1, "unit": "h"},
      {"measurement": "half-life", "setting": "[5]; [7]", "result": 180, "unit": "min"},
      {"measurement": "AUC(0-t)", "setting": "[5]; male, SD, rat, 20 mg/kg, plasma, read-out: AUC0-24", "result": 1340, "unit": "ng·h/mL"},
      {"measurement": "pIC50", "setting": "[6]", "result": "> 8.00"}
    ]}
  ]
}
